No end group written: not given here.

The text below walks through data of publication PMC10877564, “Activity of Gut-Derived Nisin-like Lantibiotics against Human Gut Pathogens and Commensals” (ACS Chemical Biology, 2024).

The nature of test [1]: Liposome permeabilization assay, liposomes with lipid II. The test is classed as biochemical. To be noted: 375 nM lantibiotic; DOPC with 0.1 mol% lipid II, 50 µM phospholipid; pyranine fluorescence, 30 min, room temperature; three replicates; Figure S7B. The procedure: (§1) To further investigate the mechanisms of action of these nisin-like lantibiotics, we performed liposome permeabilization assays using liposomes with or without lipid II (Figure S7).
(§2) Liposome Permeabilization Assay
(§3) To prepare pyranine encapsulated liposomes, DOPC (25 mg/mL in CHCl3, purchased from Avanti) was deposited into a vial and mixed with lipid II (dissolved in 2:1 CHCl3: MeOH, prepared chemoenzymatically).6 The solvent was removed using a stream of N2 leaving a thin film. Residual solvent was removed by storing it overnight in a vacuum desiccator. The film was rehydrated in buffer (5 mM Tricine, 5 mM MES, 5 mM NaCl, 1 mM pyranine pH = 6.0) and suspended with vortexing. The suspension was subjected to freeze-thaw three times before extrusion through a […] polycarbonate filter (21 passes). Excess pyranine was removed by passing the liposome solution through a Sephadex G-50 column previously equilibrated with buffer (5 mM Tricine, 5 mM MES, 5 mM NaCl, pH = 6.0). The eluted liposome solution containing the highest concentration of encapsulated pyranine (as determined visually with a UV lamp) was immediately placed on ice. Phospholipid concentration was determined by NMR as described previously.7 To measure liposome permeabilization, to a 96 well black polystyrene plate was added buffer (5 mM Tricine, 5 mM MES, 5 mM NaCl, pH = 8.0; 97 µL) and liposome solution (3 µL; 50 µM phospholipid concentration during assay). The wells were allowed to equilibrate for 8 min at room temperature then antibiotic was added. The antibiotic concentration in each well was 375 nM.
(§4) Pyranine fluorescence was monitored for 30 min then Triton X-100 was added to a final concentration of 0.1% and pyranine fluorescence was monitored for an additional 5 min. The pyranine fluorescence signal was max-min normalized. […]
(§5) Fig. S7 Liposome permeabilization assays of nisin-like lantibiotics. (A) Scheme of liposome […]
(§6) low fluorescence. Fluorescence increases upon liposome permeabilization and pH increase . (B) Fraction of liposomes permeabilized by lantibiotics (375 nM). Liposomes were composed of DOPC with or without 0.1 mol% lipid II. Error bars represent the standard of deviation of three […]
(§7) (1 picture or pasted object on this page, not shown here)

Test [2] deals with panel of Gram-positive human pathogens (VRE, MRSA, MRSE, L. monocytogenes, C. difficile). Nature of the test: MIC assay against the panel of Gram-positive human pathogens. The test is classed as cell-based. As to conditions: pathogen panel, Figure 3A-E; anaerobic. The source says:
Next, we set out to test the antimicrobial activities of these purified lantibiotics against a panel of Gram-positive bacteria that are representatives of some of the most prevalent human pathogens: VRE, Methicillin-resistant S. aureus USA300 (MRSA), Methicillin-resistant Staphylococcus epidermidis SK135 (MRSE), Listeria monocytogenes 10403S, and Clostridioides difficile VPI10463. We examined the growth of bacteria in a 96-well plate under a concentration gradient of lantibiotics under anaerobic conditions (Figure S2B).
(§8) Elution Buffer (4 M guanidine hydrochloride, 20 mM Tris HCl, pH 7.5 at 25 °C, 100 mM NaCl, 1 M imidazole). Peptides eluted from the Ni resin were concentrated and desalted using 3 kDa Amicon filters (Millipore). For leader peptide removal, the peptide (1:20 trypsin to peptide) was incubated with the trypsin protease in 50 mM Tris-HCl, pH 8 overnight at 37 °C. Lastly, the core peptides were further purified with HPLC using an Agilent 1200 instrument (Agilent) as specified in general methods. About 1.5 mg recombinant peptide was obtained after HPLC purification per […]
Purification of blauticin from Blautia producta SCSK
Stationary anaerobic culture of BPSCSK was inoculated 1:100 to 1 L BHIS. Culture was incubated on a heating plate at 37 °C with 220 rpm stirring for 2 days in an anaerobic chamber. Bacteria were pelleted with 15,000 x g centrifugation for 15 min. The supernatant was acidified with acetic acid to pH 5.5 and filtered through a 0.22 um filter. Filtered supernatant was loaded onto a HiTrap SP HP column using an AKTA Pure FPLC, which was eluted sequentially with 3 CV of distilled water, 200 mM NaCl, 400 mM NaCl, 600 mM NaCl, 800 mM NaCl, and 1 M NaCl. The 800 mM NaCl eluate was concentrated with a 3 kDa Amicon filter, followed by dialyzation with DPBS using a 3 kDa Amicon filter. Purification of blauticin was confirmed by SDS-PAGE, VRE inhibition in vitro assay, and MALDI-TOF MS. […]
(§9) For broth cultures, isolates were grown in pre-reduced BHI supplemented with 5 g/L yeast extract (Difco, BD) and 0.1% L-cysteine under anaerobic condition.
(§10) Minimal Inhibition Concentration (MIC) assay
(§11) All MIC assays were performed under anaerobic condition. Stationary bacterial culture in BHIS (BHI supplemented with 5 g/L yeast extract and 0.1% L-cysteine) were inoculated 1:100 to wells containing 200 µL BHIS in U-bottom 96-well plates. Lantibiotics were dissolved in DPBS, and concentrations were determined by BCA assay (Pierce) according to the manufacturer’s protocol.
Lantibiotic stock solutions were added to wells to reach desired final concentration, with 3-fold serial dilution across rows to create concentration gradients. Bacteria-inoculated wells without lantibiotics served as control. […]

Test [3] deals with Coprococcus eutactus MSK.18.32. Briefly: MIC assay, anaerobic broth dilution. The test is classed as cell-based. As to conditions: SAR study blauticin versus nisin O, Figure 4.
From the text: (§12) Antibiotic treatment may result in collateral damage to commensal bacteria in the human microbiome, leading to dysbiosis and susceptibility to various diseases.[44] How lantibiotics impact Gram-positive commensals from the human gut has remained unclear. Therefore, we performed antimicrobial activity tests of these lantibiotics against selected Gram-positive human gut commensals, most of which belong to the Lachnospiraceae family, one of the most abundant bacterial families in the human gut.[27] In general, human gut commensals were more susceptible to the set of investigated lantibiotics compared to pathogens (Figure 3).
as §8
(§13) All MIC assays were performed under anaerobic condition. […] Lantibiotics were dissolved in DPBS, and concentrations were determined by BCA assay (Pierce) according to the manufacturer’s protocol. […]
(In general: Dilution methods test growth across graded concentrations, often in twofold steps.)

Test [4] is described as follows: Liposome permeabilization assay, liposomes without lipid II. The test is classed as biochemical. To be noted: 375 nM lantibiotic; DOPC, 50 µM phospholipid; pyranine fluorescence, 30 min; three replicates; Figure S7. The procedure:
as §1, §2, §3, §4, §5, §6, §7

The next test deals with C. comes MSK.11.23. Briefly: MIC assay, anaerobic broth dilution. The test is classed as cell-based, Coprococcus comes. To be noted: Figure 3; anaerobic MIC assay.
From the text: as §12, with “3). […]” for “3).”
Isolation of human gut commensal bacteria
Isolation and growth of commensal bacteria was done as previously reported.5 Briefly, fresh donor fecal samples were transferred into an anaerobic chamber (Coy Labs) within 1 h of collection. The anaerobic chamber was maintained using a gas mix consisting of 5% hydrogen, 5% carbon dioxide and 90% nitrogen, and hydrogen was maintained at ~3.0% using an anaerobic gas infuser. Fecal samples were resuspended in pre-reduced PBS and plated on Columbia blood agar or brain-heart infusion (BHI – Difco, BD) agar plates in three serial 10-fold dilutions and incubated at 37 °C for 48 – 96 h. Isolated colonies were re-streaked for purity onto Columbia blood agar and frozen in pre-reduced 10% glycerol in PBS.
as §9, §10, §11
Lantibiotic stock solutions were added to wells to reach desired final concentration, with 3-fold serial dilution across rows to create concentration gradients. Bacteria-inoculated wells without lantibiotics served as control. Plates were incubated at 37 °C for 48 h before being taken out of the anaerobic chamber for centrifugation. Plates were imaged with an iBright 1500 imager […]
pellets than those without lantibiotics were identified as MIC.

Test [5] has as its system selected Gram-positive human gut commensals. Briefly: MIC assay against the panel of Gram-positive human gut commensals. To be noted: commensal panel, Figure 3F-M; anaerobic. The test is classed as cell-based.
From the text: as §12, §8, §13

As to “MAKFDDFDLDVTKTAAGEGGVEPRITSKSLCTPGCVTGILMTCPVQTATCGCQITGK (also: bicyclic or more (positions not given here)) [blauticin, class I lantibiotic of Blautia producta SCSK, heterologously produced in E. coli in mixed dehydration states]”, the “permeabilization of lipid II-containing liposomes (in words)” value in test [1] was “strongly induced permeabilization”. Also, in test [2], the “inhibitory activity against pathogens based on MIC (ranking in words)” value (from here on “inhibitory activity”) is “intermediate activities”. The “inhibition (MIC) of C. eutactus, comparison in words” value in test [3] is on record as “lower MIC than nisin O”. In addition, the “permeabilization of liposomes without lipid II compared to liposomes with lipid II (in words)” value in test [4] is “decreased permeabilization activities”.
Turning to “MAKFDDFDLDVTKTAAQGGIEPKYKSKSVCTPGCPTGILMTCPLKTATCGCHITGK (also: bicyclic or more (positions not given here)) [Lan-Df, novel nisin-like class I lantibiotic from Dorea formicigenerans, close homologue of nisin O]”, in the test with C. comes MSK.11.23, the “sensitivity of C. comes MSK.11.23 to the lantibiotic (in words)” value was “relatively resistant”. In addition, in test [1], the “permeabilization of lipid II-containing liposomes (in words)” value is recorded as “strongly induced permeabilization”. For the same substance, in test [2], the “inhibitory activity” value is “strongest inhibitory activities”. Further, the “antimicrobial activity against human gut commensals (ranking in words)” value in test [5] was “generally more effective in growth inhibition”. In addition, in test [4], the “permeabilization of liposomes without lipid II compared to liposomes with lipid II (in words)” value is “decreased permeabilization activities”.
With nisin O, the “sensitivity of C. comes MSK.11.23 to the lantibiotic (in words)” value with C. comes MSK.11.23 is “relatively resistant”. In addition, the “permeabilization of lipid II-containing liposomes (in words)” value in test [1] is on record as “strongly induced permeabilization”. The “inhibitory activity” value in test [2] is “nisin A and Lan-Df had the strongest inhibitory activities against pathogens based on their MIC, followed by nisin O”. Besides, the “permeabilization of liposomes without lipid II compared to liposomes with lipid II (in words)” value in test [4] is recorded as “decreased permeabilization activities”.
